Reference: publication PMC3216401 (Antiviral research, 2011)
pIC50: −log10 of the molar value. Where two headings read alike, the source gives them in different places.

What was measured:
[1] = system: influenza A/CA/07/2009 (H1N1); assay: microbe, parasite or virus in culture; format: cell-based; conditions: H1N1, MDCK, read-out: IC90, VYR Assay
[2] = system: A/Brisbane/10/2007 (H3N2); assay: microbe, parasite or virus in culture; format: cell-based; conditions: Influenza A virus, H3N2, MDCK, read-out: IC90, VYR Assay
[3] = system: A/Hong Kong/213/2003H (A/Hong Kong/213/2003 × Ann Arbor/6/60 hybrid); assay: microbe, parasite or virus in culture; format: cell-based; conditions: Influenza A virus, MDCK, read-out: IC90, VYR Assay
[4] = system: A/Gull/PA/4175/83 (H5N1); assay: microbe, parasite or virus in culture; format: cell-based; conditions: Influenza A virus, H5N1, MDCK, read-out: IC90, VYR Assay
[5] = system: A/Duck/MN/1525/81 (H5N1); assay: microbe, parasite or virus in culture; format: cell-based; conditions: Influenza A virus, H5N1, MDCK, read-out: IC90, VYR Assay
[6] = system: B/Malaysia/2506/2004; assay: microbe, parasite or virus in culture; format: cell-based; conditions: Influenza B virus, MDCK, read-out: IC90, VYR Assay
[7] = system: influenza viruses; assay: microbe, parasite or virus in culture; format: cell-based, influenza A and B viruses; conditions: Influenza A virus
[8] = system: influenza A/CA/07/2009 (H1N1)
[9] = system: Influenza A/Sydney/05/97 (H3N2)
[10] = system: Influenza A/Sydney/05/97 (H3N2); remark: listed apart in the source
[11] = system: A/Brisbane/10/2007 (H3N2)
[12] = system: A/Vietnam/1203/04H (A/Vietnam/1203/04 × Ann Arbor/6/60 hybrid)
[13] = system: A/Gull/PA/4175/83 (H5N1)
[14] = system: A/Gull/PA/4175/83 (H5N1); remark: listed apart in the source
[15] = system: A/Duck/MN/1525/81 (H5N1)
[16] = system: A/Duck/MN/1525/81 (H5N1); remark: listed apart in the source
[17] = system: B/Malaysia/2506/2004
[18] = system: B/Florida/4/2006
[19] = in vitro; conditions: dog
[20] = system: influenza A/CA/07/2009 (H1N1); assay: microbe, parasite or virus in culture; conditions: H1N1, MDCK, read-out: IC50, Neutral Red Uptake Assay
[21] = system: Influenza A/Sydney/05/97 (H3N2); assay: microbe, parasite or virus in culture; conditions: H3N2, MDCK, read-out: IC50, Visual Assay
[22] = system: Influenza A/Sydney/05/97 (H3N2); assay: microbe, parasite or virus in culture; conditions: H3N2, MDCK, read-out: IC50, Neutral Red Uptake Assay
[23] = system: A/Brisbane/10/2007 (H3N2); assay: microbe, parasite or virus in culture; conditions: Influenza A virus, H3N2, MDCK, read-out: IC50, Visual Assay
[24] = system: A/Brisbane/10/2007 (H3N2); assay: microbe, parasite or virus in culture; conditions: Influenza A virus, H3N2, MDCK, read-out: IC50, Neutral Red Uptake Assay
[25] = system: A/Hong Kong/213/2003H (A/Hong Kong/213/2003 × Ann Arbor/6/60 hybrid); assay: microbe, parasite or virus in culture; conditions: Influenza A virus, H1N1|H5N1, MDCK, read-out: IC50, Visual Assay
[26] = system: A/Hong Kong/213/2003H (A/Hong Kong/213/2003 × Ann Arbor/6/60 hybrid); assay: microbe, parasite or virus in culture; conditions: Influenza A virus, H1N1|H5N1, MDCK, read-out: IC50, Neutral Red Uptake Assay
[27] = system: A/Vietnam/1203/04H (A/Vietnam/1203/04 × Ann Arbor/6/60 hybrid); assay: microbe, parasite or virus in culture; conditions: Influenza A virus, H1N1|H5N1, MDCK, read-out: IC50, Visual Assay
[28] = system: A/Vietnam/1203/04H (A/Vietnam/1203/04 × Ann Arbor/6/60 hybrid); assay: microbe, parasite or virus in culture; conditions: Influenza A virus, H1N1|H5N1, MDCK, read-out: IC50, Neutral Red Uptake Assay
[29] = system: A/Gull/PA/4175/83 (H5N1); assay: microbe, parasite or virus in culture; conditions: Influenza A virus, H5N1, MDCK, read-out: IC50, Visual Assay
[30] = system: A/Gull/PA/4175/83 (H5N1); assay: microbe, parasite or virus in culture; conditions: Influenza A virus, H5N1, MDCK, read-out: IC50, Neutral Red Uptake Assay
[31] = system: A/Duck/MN/1525/81 (H5N1); assay: microbe, parasite or virus in culture; conditions: Influenza A virus, H5N1, MDCK, read-out: IC50, Neutral Red Uptake Assay
[32] = system: B/Malaysia/2506/2004; assay: microbe, parasite or virus in culture; conditions: Influenza B virus, MDCK, read-out: IC50, Neutral Red Uptake Assay
[33] = system: B/Florida/4/2006; assay: microbe, parasite or virus in culture; conditions: Influenza B virus, MDCK, read-out: IC50, Visual Assay
[34] = system: B/Florida/4/2006; assay: microbe, parasite or virus in culture; conditions: Influenza B virus, MDCK, read-out: IC50, Neutral Red Uptake Assay
[35] = MDCK, read-out: IC90 values, range over viruses of Table 3

Compound	IC90 [1] [nM]	IC90 [2] [nM]	IC90 [3] [nM]	IC90 [4] [nM]	IC90 [5] [nM]	IC90 [6] [nM]	IC90 [7, 35] [nM]	SI (CC50/IC50), Visual Assay [8]	SI (CC50/IC50), Visual Assay [9]	SI (CC50/IC50), Neutral Red Uptake Assay [10]	SI (CC50/IC50), Visual Assay [11]	SI (CC50/IC50), Visual Assay [12]	SI (CC50/IC50), Visual Assay [13]	SI (CC50/IC50), Neutral Red Uptake Assay [14]	SI (CC50/IC50), Visual Assay [15]	SI (CC50/IC50), Neutral Red Uptake Assay [16]	SI (CC50/IC50), Visual Assay [17]	SI (CC50/IC50), Neutral Red Uptake Assay [18]	pIC50 [20]	pIC50 [21]	also measured
Nc1ccn([C@@H]2O[C@H](CO)[C@@H](O)[C@H]2F)c(=O)n1 [2’-deoxy-2’-fluorocytidine, 2'-deoxy-2'-fluorocytidine]	4600	6800	5100	6100	5900	7300	1200 to 7300	>31	>170	>40	>100	>48	>110	>91	>400	>480	>53	>71	5.39	6.23	IC90 ([7]; H1N1|H3N2, MDCK, read-out: IC90 values, range for the H3N2 and H1N1 viruses tested): 4600 to 6800 nM; IC90 ([7]; H1N1|H5N1, MDCK, read-out: IC90 values, range for the hybrid H1N1 viruses expressing the H5N1 HA and NA proteins): 2900 to 5100 nM; CC50 ([19]; CC50, Visual Assay): > 100000 nM; pIC50 [22]: 5.60; pIC50 [23]: 6.00; pIC50 [24]: 4.85; pIC50 [25]: 5.89; pIC50 [26]: 5.14; pIC50 [27]: 5.68; pIC50 [28]: 5.47; pIC50 [29]: 6.04; pIC50 [30]: 5.96; pIC50 [31]: 6.68; pIC50 [32]: 5.39; pIC50 [33]: 6.00; pIC50 [34]: 5.85
Nc1ccn([C@@H]2O[C@H](CO)[C@@H](O)C2(F)F)c(=O)n1 [2’-deoxy-2’, 2’-difluorocytidine, reference compound]	130	140	40	130	250	110	30 to 2100	11.7	67	5.7	43	>1000	>480	370	>1700	>880	>3100	>440	6.80	6.74	CC50 ([19]; CC50 values, range, visual assay): 2100 to 530000 nM; pIC50 [22]: 5.92; pIC50 [23]: 6.89; pIC50 [24]: 6.80; pIC50 [25]: > 7.49; pIC50 [26]: 7.19; pIC50 [27]: > 6.49; pIC50 [28]: > 6.49; pIC50 [29]: 6.68; pIC50 [30]: 6.57; pIC50 [31]: > 6.49; pIC50 [32]: 7.17; pIC50 [33]: > 6.49; pIC50 [34]: > 6.49
